What was measured:
A549 cells [1] = assay: CCK-8 cell proliferation and cytotoxicity analysis of A549 cells; assay type: cell-based; conditions: 72 h
From the text: A CCK-8 kit was used to detect cell proliferation and cytotoxicity. Its working principle is as follows: In the presence of an electron coupling reagent, WST-8 (chemical name: 2-(2-methoxy-4-nitrophenyl)-3-(4-nitrophenyl)-5-(2,4-disulfophenyl)-2H-tetrazolium monosodium salt) can be reduced by mitochondrial dehydrogenases to produce a highly water-soluble orange-yellow formazan product. The intensity of the color is proportional to cell proliferation and inversely proportional to cytotoxicity. […] The OD value measured at a wavelength of 450 nm via a microplate reader can indirectly reflect the number of viable cells.
The CCK-8 assay was used to detect the viability of A549 cells after treatment with different concentrations of BLM and GlyT1 inhibitor for 72 h. […] In this example, BLM, which maintained the viability of A549 cells at approximately 80%, was selected for stimulation, and A549 cells were stimulated with 25 μM BLM to establish the cell model. […] At a concentration of 380 nM, the viability of A549 cells was greater than 50%. To obtain stable experimental results more easily, 190 nM GLYT1 IN was selected as the treatment concentration in subsequent studies.

[2] = system: bleomycin-induced pulmonary fibrosis; assay: Bleomycin-induced pulmonary fibrosis in mice; assay type: in vivo, C57BL/6J male mice; conditions: for collagen deposition in lung tissue (Masson staining): 1 mg/kg and 5 mg/kg BLM; for body weight: inhibitor 0.79 mg/kg per day by gavage for 14 days from day 14 after modeling
Protocol: The dosage was 0.79 mg/kg per day, and the administration route was intragastric gavage. When used, the drug was dissolved in H2O containing 0.3% Tween 80.
C57BL/6J male mice (8-10 weeks old, weighing 24-25 g) were purchased from Beijing Huafukang Biotechnology Co., Ltd. The mice were housed in a specific pathogen-free (SPF) environment, with the room temperature maintained at 20-25° C. and the humidity controlled at 50-60%. The mice were fed normally, and the light was adjusted to a 12 h light/dark cycle. Before modeling, the mice were acclimatized to the corresponding environment for 1 week. All animal experiments were conducted in compliance with the animal care regulations and guidelines of Tianjin Medical University and were approved by the Animal Committee of Tianjin Medical University.
1. Prediluted bleomycin was prepared, and doses of 1 mg/kg and 5 mg/kg were administered on the basis of the body weights of the mice.
7. The mouse's tongue was gently pulled to one side toward the mandible with sterile padded forceps to expose the vocal cords; then, the pipette tip loaded with bleomycin was lowered to the back of the oral cavity, and the liquid was delivered through the vocal cords during inhalation. The sounds of wheezing were waited to confirm that the liquid was delivered into the trachea. For animals in the control group, an equal volume of sterile PBS was used instead of the bleomycin solution.
10. The mice were monitored daily until they were euthanized for analysis. RG1678 or water containing 0.3% Tween 80 was added to the mice by gavage every day according to their groupings.
11. When the experiment reached the appropriate time point, the mice were euthanized, their eyeballs were removed for blood collection, and then the mice were dissected to collect samples.
Mice in different groups were generated according to the abovementioned methods. The mice in the control group were given normal saline, while the mice in the experimental groups were given bleomycin at different concentrations. Fourteen days after modeling, the mice were intragastrically administered either ddH2O containing 0.3% Tween 80 or RG1678 prepared in ddH2O containing 0.3% Tween 80 via continuous gavage for 14 days; the specific experimental conditions are shown in Table 1.
1. Bleomycin stock solution (10 mg/mL): First, 10 mg of bleomycin was weighed and dissolved in 1 mL of 0.9% sodium chloride. The instillation volume for each mouse was calculated on the basis of its body weight, with the instillation volume per mouse being approximately 50 μL. The stock solution was diluted to 0.5 mg/mL and 2.5 mg/mL for subsequent instillation according to the different groups (1 mg/kg and 5 mg/kg).
3. RG1678 (0.79 mg/mL): An appropriate amount of RG1678 was dissolved in ddH2O containing 0.3% Tween 80 to prepare a stock working solution of 0.79 mg/mL. The intragastric administration volume was then calculated on the basis of the mouse's body weight, with approximately 200 μL per mouse. Before use, the stock solution was diluted to a working concentration of […].
The body weights of the mice were measured before modeling, and their body weights were monitored daily during the experiment to observe changes. A comparison was made between the body weight at the end of the experiment and that at the beginning.
To further observe lung tissue damage in mice in detail, pathological detection was performed on the mouse lung tissues in this example.
Masson staining was performed on mouse lung tissue sections. Masson staining is an experimental method used to detect the secretion and deposition levels of collagen fibers in tissues. After treatment with different staining solutions, the overall background of the tissue section appeared red, the cell nuclei were black, and the collagen fibers were blue. The content of collagen fibers can be evaluated on the basis of the depth of the blue color and the scope of its distribution. […]

A549 cells [3] = assay: Western blot of pulmonary fibrosis-related indicators in the in vitro bleomycin-induced pulmonary fibrosis model; assay type: cell-based; conditions: 25 μM BLM + 190 nM GLYT1 IN for 72 h; compared with BLM group
Protocol: A bleomycin-induced pulmonary fibrosis model was established in vitro, with simultaneous intervention via a GLYT1 inhibitor.
For the in vitro bleomycin-induced pulmonary fibrosis model, A549 cells were divided into […] treatment groups: the NC group (control group: treated with normal saline), the BLM group (bleomycin-treated group: treated with 25 μM BLM for 72 h), and the BLM+GLYT1 IN group (bleomycin and glycine transporter 1 inhibitor-treated group: treated with 25 μM BLM for 72 h and 190 nM GLYT1 IN for 72 h).
Western blotting was used to detect the expression levels of pulmonary fibrosis-related indicators: collagen type I alpha 1 (col1α1), collagen type III alpha 1 (col3α1), collagen type IV alpha 1 (col4α1), E-cadherin (E-Cad), and α-SMA proteins.

[4] = intervention initiated 14 days after BLM modeling, lung paraffin sections
[5] = treatment for 14 days from day 14 after modeling, compared with BLM group

Molecule | viability of A549 cells (A549 cells [1]; 10 μM bleomycin) | viability of A549 cells (A549 cells [1]; 25 μM BLM) | viability of A549 cells with increasing concentrations (A549 cells [1]; increasing concentrations) | collagen deposition in lung tissue (Masson staining) ([2]; compared with BLM group, listed as GLYT1 IN) | collagen deposition in lung tissue (Masson staining) ([2]; compared with BLM group, listed as GlyT1 inhibitor 1) | body weight ([2]; BLM 1 or 5 mg/kg, compared with BLM group) | body weight ([2]; BLM 1 or 5 mg/kg, compared with BLM group, listed as GLYT1 IN) | change in lung weight/body weight ratio ([2]; BLM 1 or 5 mg/kg, inhibitor by gavage for 14 days from day 14 after modeling, compared with BLM group (**P<0.01, ***P<0.001)) | general condition changes after modeling (delayed responses, huddling, trembling, cyanosis, decreased food intake, wrinkled skin) ([2]; BLM+RG1678 group compared with BLM group) | BLM-induced lung tissue consolidation (HE staining) [2, 4] | degree of fibrosis (HE staining) [2, 4] | collagen deposition in lung tissue (Sirius Red staining) ([2]; intervention initiated 14 days after modeling, compared with BLM stimulation) | deposition of type I collagen in lung tissue (immunohistochemistry) [2, 5] | deposition of type III collagen in lung tissue (immunohistochemistry) [2, 5] | viability of A549 cells (A549 cells [1]; human, 380 nM) | E-cadherin protein expression level (A549 cells [3]) | col1α1 protein expression level (A549 cells [3]) | col3α1 protein expression level (A549 cells [3]) | col4α1 protein expression level (A549 cells [3]) | α-SMA protein expression level (A549 cells [3])
bleomycin | significantly affected | approximately 80% | decreased | – | – | – | – | – | – | – | – | – | – | – | – | – | – | – | – | –
C[C@H](Oc1ccc(S(C)(=O)=O)cc1C(=O)N1CCN(c2ncc(C(F)(F)F)cc2F)CC1)C(F)(F)F [RG1678] | – | – | – | not obvious | significantly reduce | less pronounced decrease | significantly greater | significantly alleviated | milder degrees | reduced | significantly alleviated | significantly reduced | significantly lower | significantly lower | greater than 50% | significantly increased | significantly decreased | significantly decreased | significantly decreased | significantly decreased
